Results reported in patent publication EP0701444B1, “METHODS AND COMPOSITIONS FOR INDUCING SLEEP” (Purdue Pharma Ltd., priority 1993, dated 1994).

What was measured:
[1] = biological target: steroid site on the GABAA receptor-chloride channel complex; assay: [35S]TBPS binding assay; set-up: species or system Male Sprague-Dawley rats; conditions: inhibition of [35S]TBPS (2 nM) binding, rat cerebral cortex P2 membranes, 5 µM GABA, 90 minute incubation at 22°C
Procedure: TBPS binding assays were conducted according to the following procedures, which are described in Gee, K.W.; Lawrence, L.J.; and Yamamura, H. I., "Modulation of the Chloride Ionophore by Benzodiazepine Receptor Ligands Influence of Gamma-Aminobutyric Acid and Ligand Efficacy," Molecular Pharmacology, 30:218, 1986. Male Sprague-Dawley rats (200-250g) were anesthetized with carbon dioxide and decapitated. The rats' brains were removed and the cerebral cortices were dissected and homogenized in 10 volumes of 0.32 M sucrose. Tissue was centrifuged at 1000 x g for 10 minutes and the resultant supernatant was centrifuged at 9,000 g for 20 minutes. The resultant pellet was resuspended in 10 volumes of 200 mM NaCl/50 mM Na-K phosphate pH 7.4 buffer (binding buffer) and then centrifuged at 9,000 x g for 10 minutes. This washing procedure was repeated twice and the final P2 pellet was resuspended in the binding buffer. For the binding assay, [^35S] TBPS (2 nM) was co-incubated in binding buffer with P2 membranes and 5 µM GABA and either 1) no additions to measure total binding; 2) 2 µM unlabeled TPBS to measure nonspecific binding; 3) the neurosteroid ranging in concentration from 1 Nm to 10µM. Following a 90 minute incubation at 22°C, the suspension was filtered and the bound radioactivity was determined by liquid scintillation counting. […] A lower IC50 indicates higher affinity for the steroid site on the GABAA receptor-chloride channel complex. Table 1 gives the IC50 values of representative steroids used in the present invention.

rats = assay: Rat sleep-wake bioassay (EEG, EMG, locomotor activity, body temperature); assay type: in vivo, Wistar rats
Procedure: Rat preparation, monitoring, and analysis of the data was conducted as described below. […] Body temperature and locomotor activity were monitored via a miniature transmitter (Minimitter) surgically placed in the abdomen. The cranial implant consisted of stainless steel screws (2 frontal [+3.9 AP form bregma, ±2.0 ML] and two occipital [-6.4 AP, ±5.5 ML]) for EEG recording. Two Teflon-coated steel wires were positioned under the nuchal trapezoid muscles for EMG recording. All leads were soldered to a miniature connector prior to surgery, and chemically sterilized in Glutarex (3M Co.). The implant assembly was affixed to the skull with dental acrylic. A minimum of three weeks was allowed for recovery.
Each rat was permanently housed in its own individual recording cage located within separate, ventilated compartments of custom-designed stainless steel cabinets. Each Nalgene microisolator cage, which is an individual recording cage, was enhanced with a filter-top riser and swivel-commutator. Food and water were available ad libitum. […] Animals were undisturbed for three days both before and after treatments. In practice, animals were undisturbed during the weekend. Treatments were administered on Monday evening or Tuesday morning, and the animals were again left undisturbed until Friday, when cages were cleaned and the data copied off the computers.
The computers monitored the EEG, EMG, body temperature and non-specific locomotor activity (LMA) via telemetry, and drinking activity from 48 rats simultaneously. The computer classified the arousal state every 10 seconds using pattern-matching algorithms which included behavior-dependent contextual rules. Drinking and LMA were recorded every 10 seconds, while body temperature was recorded every minute.
Therefore, time of treatment is important. By administering the drug at CT-18, which is the peak of the rat's activity dominated period, the natural tendency for the rats to sleep at lights on ([…] clock time or Circadian Time, CT-0) cannot mask the hypnotic activity of the drug. By administering the drug at CT-5 when the propensity for REM sleep is greatest, the drug's effect on REM sleep can be measured more accurately. The activity dominated period begins when the lights are turned off at CT-12 or 15:00 clock time on the Figures.
The drugs and controls were injected intraperitoneally or administered orally in a volume of 1 ml/kg or […], respectively, under dim red illumination for the CT-18 studies or under regular light for the CT-5 studies.
A matched control group, N=20, was selected from a pool of 60 available control candidates. These matched control groups were constructed as follows.

Solubility in water = assay type: physicochemical; conditions: read-out: soluble in water

Row | SMILES | IC50 [1] | REM sleep (rats) | body temperature (rats) | duration of uninterrupted NREM sleep (sleep bout length) (rats) | reduction in LMA over time (rats; 18 mg/kg at CT-18) | rebound reduction of NREM sleep (rats; administered at CT-18) | solubility (Solubility in water)
1 | C#C[C@@]1(O)CC[C@@]2(C)[C@H](CC[C@@H]3[C@@H]2CC[C@]2(C)[C@@H](C(C)=O)CC[C@@H]32)C1 [3β-ethynyl-3α-hydroxy-5β-pregnan-20-one] | 39 nM | lack an inhibitory effect on REM sleep | minimal effect on body temperature | strong increase | moderately smaller reduction | no rebound reduction of NREM sleep | –
2 | C#C[C@@]1(O)CC[C@@]2(C)[C@H](CC[C@@H]3[C@@H]2CC[C@]2(C)[C@@H](C(=O)COC(=O)CCC(=O)O)CC[C@@H]32)C1 [Sodium 3α,21-dihydroxy-3β-ethynyl-5β-pregnan-20-one 21-hemisuccinate] | – | – | – | – | – | – | > 20 mg/mL
